Values of other authors, collected in patent US12691128B2, “Methods of treating eosinophilic esophagitis and reducing candidiasis” (Ellodi Pharmaceuticals, L.P., priority 2019, dated 2026).
Where two headings read alike, the source gives them in different places.

Assays:
glucocorticoid receptor = biological target: T1, glucocorticoid receptor (Homo sapiens, UniProt P04150); set-up: reference not given here
T1 sequence (P04150 1-777): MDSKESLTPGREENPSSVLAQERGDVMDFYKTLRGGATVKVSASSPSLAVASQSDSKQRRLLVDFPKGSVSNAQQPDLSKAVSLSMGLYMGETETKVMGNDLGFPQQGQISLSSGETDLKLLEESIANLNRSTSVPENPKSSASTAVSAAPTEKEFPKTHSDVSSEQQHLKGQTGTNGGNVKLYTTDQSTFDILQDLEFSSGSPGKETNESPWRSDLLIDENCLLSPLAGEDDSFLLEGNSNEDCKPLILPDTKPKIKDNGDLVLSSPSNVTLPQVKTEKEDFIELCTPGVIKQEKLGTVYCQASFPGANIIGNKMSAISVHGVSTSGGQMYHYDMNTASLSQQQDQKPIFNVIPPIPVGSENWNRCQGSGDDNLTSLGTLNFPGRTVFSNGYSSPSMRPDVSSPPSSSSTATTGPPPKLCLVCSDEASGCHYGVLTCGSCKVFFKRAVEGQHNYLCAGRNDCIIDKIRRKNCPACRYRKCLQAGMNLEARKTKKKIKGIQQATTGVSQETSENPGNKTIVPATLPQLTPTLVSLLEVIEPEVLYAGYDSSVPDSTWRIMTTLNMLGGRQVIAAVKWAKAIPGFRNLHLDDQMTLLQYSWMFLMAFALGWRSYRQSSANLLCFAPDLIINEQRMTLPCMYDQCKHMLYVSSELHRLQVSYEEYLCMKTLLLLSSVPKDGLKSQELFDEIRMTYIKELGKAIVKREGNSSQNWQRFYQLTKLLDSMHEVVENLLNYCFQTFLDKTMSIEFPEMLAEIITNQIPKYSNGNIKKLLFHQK

[1] = biological target: cytochrome (CYP) isoenzyme 2C9 (Homo sapiens, UniProt P11712)
CYP3A4 = CYP3A4 (Homo sapiens, UniProt P08684)
[2] = reported

Sequence of cytochrome (CYP) isoenzyme 2C9 (P11712 whole entry): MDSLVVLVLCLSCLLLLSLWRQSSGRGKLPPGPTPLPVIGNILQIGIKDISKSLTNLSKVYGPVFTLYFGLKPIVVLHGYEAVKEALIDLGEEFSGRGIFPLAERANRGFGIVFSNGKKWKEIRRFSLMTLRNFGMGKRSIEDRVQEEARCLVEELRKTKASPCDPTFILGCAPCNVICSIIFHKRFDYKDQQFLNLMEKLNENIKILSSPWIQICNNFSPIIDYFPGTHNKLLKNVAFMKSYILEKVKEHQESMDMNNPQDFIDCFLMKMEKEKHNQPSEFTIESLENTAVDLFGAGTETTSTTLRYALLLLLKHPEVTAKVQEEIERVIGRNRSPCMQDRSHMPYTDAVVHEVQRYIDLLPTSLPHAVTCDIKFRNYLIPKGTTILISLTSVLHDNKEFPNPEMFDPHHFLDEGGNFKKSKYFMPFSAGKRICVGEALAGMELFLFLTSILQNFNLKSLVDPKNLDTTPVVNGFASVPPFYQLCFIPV
Sequence of CYP3A4 (P08684 whole entry): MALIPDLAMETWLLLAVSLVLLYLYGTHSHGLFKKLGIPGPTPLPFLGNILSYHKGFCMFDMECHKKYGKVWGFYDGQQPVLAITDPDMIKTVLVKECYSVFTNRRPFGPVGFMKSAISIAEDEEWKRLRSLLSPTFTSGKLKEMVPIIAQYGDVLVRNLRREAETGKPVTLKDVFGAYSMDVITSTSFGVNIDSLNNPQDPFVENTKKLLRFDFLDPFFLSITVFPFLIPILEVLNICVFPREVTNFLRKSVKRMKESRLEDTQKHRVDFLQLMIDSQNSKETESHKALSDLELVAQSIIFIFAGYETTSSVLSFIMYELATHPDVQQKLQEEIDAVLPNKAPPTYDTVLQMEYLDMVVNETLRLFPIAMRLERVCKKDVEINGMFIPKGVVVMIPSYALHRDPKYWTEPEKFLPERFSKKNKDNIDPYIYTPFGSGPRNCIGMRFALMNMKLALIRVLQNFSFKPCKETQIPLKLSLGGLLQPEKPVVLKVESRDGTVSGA

For `CC1(C)O[C@@H]2C[C@H]3[C@@H]4C[C@H](F)C5=CC(=O)C=C[C@]5(C)[C@H]4[C@@H](O)C[C@]3(C)[C@]2(C(=O)CO)O1` [Flunisolide], the “Relative Glucocorticoid Receptor Binding Affinity” value (glucocorticoid receptor) is listed as 190.

In the case of `OC(Cn1cncn1)(Cn1cncn1)c1ccc(F)cc1F` [fluconazole], the “Inhibition of cytochrome (CYP) isoenzyme 2C9” value [1] is listed as “potent inhibitor” and the “Inhibition of CYP3A4” value (CYP3A4) is listed as “moderate inhibitor”.

For `CCC(=O)O[C@]1(C(=O)SCF)[C@H](C)C[C@H]2[C@@H]3C[C@H](F)C4=CC(=O)C=C[C@]4(C)[C@@]3(F)[C@@H](O)C[C@@]21C` [Fluticasone propionate, S-(fluoromethyl)-6α,9-difluoro-11β, 17-dihydroxy-16α-methyl-3-oxoandrosta-1,4-diene-17β-carbothioate, 17-propanoate], the Oral bioavailability [2] is listed as “less than 1%”, the Solubility (acetone, dichloromethane, ethyl acetate and chloroform) is listed as “sparingly soluble” and the Solubility (dimethyl sulfoxide and dimethylformamide) is listed as “freely soluble”. For the same compound, the Solubility (methanol and 95% ethanol) was “slightly soluble”, the Solubility (water) was “practically insoluble” and the “Relative Glucocorticoid Receptor Binding Affinity” value (glucocorticoid receptor) was 1775.

In the case of `CC1(C)O[C@@H]2C[C@H]3[C@@H]4CCC5=CC(=O)C=C[C@]5(C)[C@@]4(F)[C@@H](O)C[C@]3(C)[C@]2(C(=O)CO)O1` [Triamicinolone acetonide], the “Relative Glucocorticoid Receptor Binding Affinity” value (glucocorticoid receptor) is given as 233.

In the case of `C[C@]12C=CC(=O)C=C1CC[C@@H]1[C@@H]2[C@@H](O)C[C@@]2(C)[C@H]1C[C@H]1O[C@@H](C3CCCCC3)O[C@]12C(=O)CO` [des-CIC], the “Relative Glucocorticoid Receptor Binding Affinity” value (glucocorticoid receptor) is listed as 12 (1200).

For `C[C@]12C=CC(=O)C=C1CC[C@@H]1[C@@H]2[C@@H](O)C[C@@]2(C)[C@H]1CC[C@]2(O)C(=O)CO` [Prednisolone], the “Relative Glucocorticoid Receptor Binding Affinity” value (glucocorticoid receptor) is given as 12.
